For seven compounds, IC50 and ΔTm results are on record in ChEMBL document CHEMBL5223180, “Design, Synthesis, and Bioevaluation of Pyrido[2,3-d]pyrimidin-7-ones as Potent SOS1 Inhibitors” (ACS Med Chem Lett, 2023).

The target in assay [1] is T1, Son of sevenless homolog 1 (Homo sapiens, UniProt Q07889).
T1 sequence (Q07889 whole entry): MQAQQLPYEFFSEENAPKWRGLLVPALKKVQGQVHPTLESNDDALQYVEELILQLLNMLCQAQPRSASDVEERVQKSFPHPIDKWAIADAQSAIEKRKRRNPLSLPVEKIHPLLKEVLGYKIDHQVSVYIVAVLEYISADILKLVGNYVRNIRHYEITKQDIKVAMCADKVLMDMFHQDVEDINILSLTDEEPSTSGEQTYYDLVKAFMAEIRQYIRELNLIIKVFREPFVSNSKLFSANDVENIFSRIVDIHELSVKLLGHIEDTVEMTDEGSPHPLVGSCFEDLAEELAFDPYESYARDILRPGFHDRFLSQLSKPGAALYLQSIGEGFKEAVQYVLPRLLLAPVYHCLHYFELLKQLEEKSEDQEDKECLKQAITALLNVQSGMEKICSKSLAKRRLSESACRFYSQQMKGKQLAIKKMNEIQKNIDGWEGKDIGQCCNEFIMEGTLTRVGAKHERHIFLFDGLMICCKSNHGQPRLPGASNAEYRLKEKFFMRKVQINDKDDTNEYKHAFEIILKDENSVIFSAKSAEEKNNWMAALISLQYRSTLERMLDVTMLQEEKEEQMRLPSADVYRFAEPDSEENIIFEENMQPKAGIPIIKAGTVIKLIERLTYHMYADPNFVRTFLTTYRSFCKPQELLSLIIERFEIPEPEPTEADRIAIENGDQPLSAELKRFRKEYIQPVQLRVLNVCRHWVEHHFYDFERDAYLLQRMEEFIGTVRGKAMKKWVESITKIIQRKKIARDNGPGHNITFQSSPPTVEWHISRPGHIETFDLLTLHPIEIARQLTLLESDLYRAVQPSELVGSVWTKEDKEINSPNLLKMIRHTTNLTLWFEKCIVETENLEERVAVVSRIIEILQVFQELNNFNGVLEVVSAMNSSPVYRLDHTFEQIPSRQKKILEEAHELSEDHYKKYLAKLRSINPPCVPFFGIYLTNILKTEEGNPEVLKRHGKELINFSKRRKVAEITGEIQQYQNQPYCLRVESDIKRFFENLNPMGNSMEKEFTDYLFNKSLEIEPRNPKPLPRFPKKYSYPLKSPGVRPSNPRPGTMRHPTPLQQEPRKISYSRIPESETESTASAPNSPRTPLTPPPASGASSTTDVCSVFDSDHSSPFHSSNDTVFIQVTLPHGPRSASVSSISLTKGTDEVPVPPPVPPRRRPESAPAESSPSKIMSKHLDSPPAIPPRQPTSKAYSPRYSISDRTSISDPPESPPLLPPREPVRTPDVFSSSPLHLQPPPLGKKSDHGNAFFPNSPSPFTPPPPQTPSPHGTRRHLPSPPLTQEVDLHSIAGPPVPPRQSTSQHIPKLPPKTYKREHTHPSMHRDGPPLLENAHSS
The assay can be described thus: Inhibition of 6His-tagged SOS1 (unknown origin) mediated GST-tagged KRAS G12D activation preincubated for 15 mins followed by KRAS G12D addition and measured after 30 mins by HTRF assay.

Assay [2] concerns GTPase KRas (Homo sapiens), P01116 [G12D]. The settings on record: dose 10.0 µM.
In another assay the test system is MIA PaCa-2. The assay can be described thus: cells. Particulars: Homo sapiens, MIA PaCa-2, 168 h.
Assay [3] has as its target Platelet-derived growth factor receptor alpha (Homo sapiens, UniProt P16234). The experiment in a line: Inhibition of PDGFRalpha (unknown origin).
In assay [4] the target is Fibroblast growth factor receptor 1 (Homo sapiens, UniProt P11362). The assay can be described thus: Inhibition of FGFR1 (unknown origin).
The target in assay [5] is Cyclin-dependent kinase 4 (Homo sapiens, UniProt P11802). The assay can be described thus: Inhibition of CDK4 (unknown origin).
Assay [6] addresses Receptor tyrosine-protein kinase erbB-2 (Homo sapiens, UniProt P04626). The assay can be described thus: Inhibition of HER2 (unknown origin).
In assay [7] the target is Epidermal growth factor receptor (Homo sapiens, UniProt P00533). The experiment in a line: Inhibition of EGFR (unknown origin).
The target in assay [8] is Cyclin-dependent kinase 2 (Homo sapiens, UniProt P24941). The assay can be described thus: Inhibition of CDK2 (unknown origin).

Sequence of Platelet-derived growth factor receptor alpha (P16234 whole entry): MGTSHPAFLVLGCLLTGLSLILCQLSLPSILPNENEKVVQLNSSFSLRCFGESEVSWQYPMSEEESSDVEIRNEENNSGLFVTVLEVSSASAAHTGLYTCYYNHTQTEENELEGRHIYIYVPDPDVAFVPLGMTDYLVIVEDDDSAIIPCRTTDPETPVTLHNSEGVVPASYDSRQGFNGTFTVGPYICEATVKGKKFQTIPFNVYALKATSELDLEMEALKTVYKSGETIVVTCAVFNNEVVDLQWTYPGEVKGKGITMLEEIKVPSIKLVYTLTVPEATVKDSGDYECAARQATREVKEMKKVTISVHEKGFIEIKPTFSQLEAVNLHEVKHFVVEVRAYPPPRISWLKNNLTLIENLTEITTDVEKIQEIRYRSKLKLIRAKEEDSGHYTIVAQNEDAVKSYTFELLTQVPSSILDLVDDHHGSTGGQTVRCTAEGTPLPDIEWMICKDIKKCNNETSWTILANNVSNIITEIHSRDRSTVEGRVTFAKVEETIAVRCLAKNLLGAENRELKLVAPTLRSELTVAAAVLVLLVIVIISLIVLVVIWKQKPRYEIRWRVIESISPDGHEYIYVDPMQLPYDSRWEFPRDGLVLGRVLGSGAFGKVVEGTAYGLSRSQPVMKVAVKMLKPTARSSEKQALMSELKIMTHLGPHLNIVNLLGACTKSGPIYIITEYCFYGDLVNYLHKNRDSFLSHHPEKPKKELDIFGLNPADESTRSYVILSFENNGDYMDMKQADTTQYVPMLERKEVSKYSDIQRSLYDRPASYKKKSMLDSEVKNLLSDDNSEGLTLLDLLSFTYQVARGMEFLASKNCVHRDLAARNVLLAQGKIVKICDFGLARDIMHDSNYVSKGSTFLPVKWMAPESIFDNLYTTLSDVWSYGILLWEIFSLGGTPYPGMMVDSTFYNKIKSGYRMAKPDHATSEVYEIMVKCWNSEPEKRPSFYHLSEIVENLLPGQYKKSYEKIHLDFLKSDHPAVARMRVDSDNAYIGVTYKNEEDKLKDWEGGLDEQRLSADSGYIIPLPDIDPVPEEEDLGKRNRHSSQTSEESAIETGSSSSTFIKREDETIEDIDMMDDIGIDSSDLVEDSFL
Sequence of Fibroblast growth factor receptor 1 (P11362 whole entry): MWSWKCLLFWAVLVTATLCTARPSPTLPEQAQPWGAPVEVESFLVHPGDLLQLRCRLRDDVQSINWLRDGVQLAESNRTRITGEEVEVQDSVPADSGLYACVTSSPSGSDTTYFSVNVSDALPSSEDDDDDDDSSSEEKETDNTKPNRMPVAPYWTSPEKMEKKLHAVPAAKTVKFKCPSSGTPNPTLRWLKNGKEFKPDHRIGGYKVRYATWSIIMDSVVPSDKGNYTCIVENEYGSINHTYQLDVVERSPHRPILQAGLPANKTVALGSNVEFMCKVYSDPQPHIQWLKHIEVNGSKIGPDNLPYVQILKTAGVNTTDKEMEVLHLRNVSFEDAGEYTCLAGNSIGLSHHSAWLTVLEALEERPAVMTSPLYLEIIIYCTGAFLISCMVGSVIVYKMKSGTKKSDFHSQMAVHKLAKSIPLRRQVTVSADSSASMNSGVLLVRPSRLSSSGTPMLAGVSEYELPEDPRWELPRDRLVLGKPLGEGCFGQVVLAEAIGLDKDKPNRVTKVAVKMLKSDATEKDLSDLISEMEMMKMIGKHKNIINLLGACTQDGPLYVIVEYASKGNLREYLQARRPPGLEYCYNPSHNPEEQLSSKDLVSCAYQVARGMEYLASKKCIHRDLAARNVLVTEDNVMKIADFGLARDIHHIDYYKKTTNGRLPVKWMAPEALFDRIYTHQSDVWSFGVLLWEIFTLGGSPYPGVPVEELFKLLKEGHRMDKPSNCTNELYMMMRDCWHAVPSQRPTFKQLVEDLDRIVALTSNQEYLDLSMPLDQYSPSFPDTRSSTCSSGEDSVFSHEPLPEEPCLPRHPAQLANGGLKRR
Sequence of Epidermal growth factor receptor (P00533 whole entry): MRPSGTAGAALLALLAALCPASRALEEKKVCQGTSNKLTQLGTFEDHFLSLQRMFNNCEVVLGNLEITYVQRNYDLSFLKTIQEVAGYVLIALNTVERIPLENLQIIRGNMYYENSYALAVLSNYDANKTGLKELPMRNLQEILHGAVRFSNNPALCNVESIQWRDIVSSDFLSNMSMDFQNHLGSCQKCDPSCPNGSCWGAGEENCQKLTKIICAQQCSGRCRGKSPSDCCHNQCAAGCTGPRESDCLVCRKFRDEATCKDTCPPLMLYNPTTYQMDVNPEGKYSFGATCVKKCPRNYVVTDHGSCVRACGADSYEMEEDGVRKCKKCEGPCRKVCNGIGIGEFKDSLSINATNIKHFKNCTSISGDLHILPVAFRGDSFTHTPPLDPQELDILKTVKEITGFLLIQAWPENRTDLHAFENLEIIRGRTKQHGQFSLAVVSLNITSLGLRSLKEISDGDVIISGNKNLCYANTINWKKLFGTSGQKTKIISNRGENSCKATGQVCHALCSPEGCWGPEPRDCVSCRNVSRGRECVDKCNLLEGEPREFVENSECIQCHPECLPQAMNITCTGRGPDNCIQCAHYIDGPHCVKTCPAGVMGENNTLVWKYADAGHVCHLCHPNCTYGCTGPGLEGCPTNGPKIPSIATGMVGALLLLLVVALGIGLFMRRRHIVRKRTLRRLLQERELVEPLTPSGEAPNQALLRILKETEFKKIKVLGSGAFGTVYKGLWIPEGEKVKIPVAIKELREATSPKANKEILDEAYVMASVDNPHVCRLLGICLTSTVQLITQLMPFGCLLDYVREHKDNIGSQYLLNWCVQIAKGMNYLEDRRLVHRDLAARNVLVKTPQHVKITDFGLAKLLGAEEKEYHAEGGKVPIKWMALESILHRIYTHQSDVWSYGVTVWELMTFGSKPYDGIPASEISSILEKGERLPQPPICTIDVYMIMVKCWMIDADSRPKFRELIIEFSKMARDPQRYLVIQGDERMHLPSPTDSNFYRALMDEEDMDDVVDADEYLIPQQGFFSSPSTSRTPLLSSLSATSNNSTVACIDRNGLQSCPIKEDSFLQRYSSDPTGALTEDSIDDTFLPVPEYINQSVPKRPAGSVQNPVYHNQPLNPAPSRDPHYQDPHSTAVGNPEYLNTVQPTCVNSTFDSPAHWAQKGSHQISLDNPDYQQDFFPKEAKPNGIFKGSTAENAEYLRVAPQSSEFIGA
Sequence of GTPase KRas (Homo sapiens), P01116 [G12D] (P01116 whole entry G12D, looked up): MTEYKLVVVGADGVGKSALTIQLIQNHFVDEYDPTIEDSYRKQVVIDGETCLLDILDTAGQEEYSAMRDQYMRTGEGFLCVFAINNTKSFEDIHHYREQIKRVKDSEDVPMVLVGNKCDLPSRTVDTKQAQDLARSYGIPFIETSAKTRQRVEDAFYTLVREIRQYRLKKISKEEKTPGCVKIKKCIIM
Sequence of Receptor tyrosine-protein kinase erbB-2 (P04626 whole entry): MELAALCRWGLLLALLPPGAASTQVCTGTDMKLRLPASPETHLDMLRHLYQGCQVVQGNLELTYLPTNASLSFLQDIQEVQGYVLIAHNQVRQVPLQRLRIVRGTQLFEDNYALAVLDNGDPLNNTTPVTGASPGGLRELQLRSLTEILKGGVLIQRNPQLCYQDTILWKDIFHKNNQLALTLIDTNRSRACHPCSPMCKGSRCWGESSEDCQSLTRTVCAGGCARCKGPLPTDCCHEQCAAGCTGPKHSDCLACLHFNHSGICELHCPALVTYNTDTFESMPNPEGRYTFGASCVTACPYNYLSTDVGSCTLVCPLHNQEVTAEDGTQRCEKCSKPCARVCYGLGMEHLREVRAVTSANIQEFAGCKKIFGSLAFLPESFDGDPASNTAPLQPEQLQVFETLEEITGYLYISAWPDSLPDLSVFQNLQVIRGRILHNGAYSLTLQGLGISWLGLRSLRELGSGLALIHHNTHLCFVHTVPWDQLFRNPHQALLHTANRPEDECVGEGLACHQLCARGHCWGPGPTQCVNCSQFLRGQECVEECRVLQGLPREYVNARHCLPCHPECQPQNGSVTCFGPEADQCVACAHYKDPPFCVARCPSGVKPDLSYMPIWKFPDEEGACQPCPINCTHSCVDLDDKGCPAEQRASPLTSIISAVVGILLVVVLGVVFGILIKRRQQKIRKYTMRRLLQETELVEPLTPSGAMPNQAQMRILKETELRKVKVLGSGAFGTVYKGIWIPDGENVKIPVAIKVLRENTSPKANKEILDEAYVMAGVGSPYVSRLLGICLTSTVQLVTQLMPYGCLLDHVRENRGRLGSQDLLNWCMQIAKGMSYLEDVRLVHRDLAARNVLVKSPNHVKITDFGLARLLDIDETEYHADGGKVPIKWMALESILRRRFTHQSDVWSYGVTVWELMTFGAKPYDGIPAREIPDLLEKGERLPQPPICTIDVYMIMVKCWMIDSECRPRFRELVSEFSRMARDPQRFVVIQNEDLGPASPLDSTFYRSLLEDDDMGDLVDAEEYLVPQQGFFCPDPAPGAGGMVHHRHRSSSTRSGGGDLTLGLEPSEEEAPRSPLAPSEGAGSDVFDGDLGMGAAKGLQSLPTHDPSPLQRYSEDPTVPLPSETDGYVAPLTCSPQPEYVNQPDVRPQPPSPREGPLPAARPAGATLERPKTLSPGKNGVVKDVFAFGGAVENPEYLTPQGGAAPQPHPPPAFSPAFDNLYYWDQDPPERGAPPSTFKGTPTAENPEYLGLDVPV
Sequence of Cyclin-dependent kinase 4 (P11802 whole entry): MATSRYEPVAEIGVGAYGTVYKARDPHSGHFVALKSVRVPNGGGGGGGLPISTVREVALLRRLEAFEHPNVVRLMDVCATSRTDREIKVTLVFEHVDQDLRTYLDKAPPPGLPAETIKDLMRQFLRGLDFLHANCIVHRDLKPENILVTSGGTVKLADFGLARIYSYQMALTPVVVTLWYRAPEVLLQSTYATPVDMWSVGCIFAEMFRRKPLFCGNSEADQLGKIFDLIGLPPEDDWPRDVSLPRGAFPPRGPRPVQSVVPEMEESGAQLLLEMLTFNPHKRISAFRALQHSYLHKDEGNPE

As to `C[C@@H](Nc1ncnc2c1cc(N)c(=O)n2C)c1cc(N)cc(C(F)(F)F)c1`, the IC50 in assay [1] was over 5 µM.
Still for that read-out and setting: as for `CC(=O)N1CCC(c2cc3c(Nc4cccc(C(F)(F)F)c4)ncnc3n(C)c2=O)CC1`, the figure is over 5 µM; as for `C[C@@H](Nc1ncnc2c1ccc(=O)n2C)c1cc(N)cc(C(F)(F)F)c1`, over 5 µM; as for `CC(=O)Nc1cc2c(N[C@H](C)c3cc(N)cc(C(F)(F)F)c3)ncnc2n(C)c1=O`, over 5 µM.
`COc1cc2nc(C)nc(N[C@H](C)c3cc(N)cc(C(F)(F)F)c3)c2cc1O[C@H]1CCOC1`: the thermal shift (ΔTm) in [2] came out at 0 °C. In the assay on MIA PaCa-2, this compound showed a concentration for half-maximal inhibition (IC50) of 0.03 µM.
Take `CC(=O)N1CCC(c2cc3c(N[C@H](C)c4cc(N)cc(C(F)(F)F)c4)nc(C)nc3n(C)c2=O)CC1`: the 50% inhibitory concentration (IC50) in [3], in assay [4], in assay [5], in assay [6], in assay [7] and in assay [8] was over 10 µM each time.
In [1], `C[C@@H](Nc1ncnc2c1cc(NC1CCCCC1)c(=O)n2C)c1cc(N)cc(C(F)(F)F)c1` came in with an IC50 of over 5 µM.
